Reference: patent US20210038607A1, “OXADIAZOLYLTHIOPHENE DERIVATIVES USEFUL AS HISTONE DEACETYLASE INHIBITORS” (Karus Therapeutics Limited, priority 2018, published 2021)

Experiments:
Human HDAC1 = target: T1, Human HDAC1 (Homo sapiens, UniProt Q13547); experiment: HDAC1 biochemical assay, AMC-labeled peptide substrate; conditions: read-out: HDAC Isoform IC50 (nM) 1
T1 construct: full length with C-terminal His-tag and C-terminal FLAG-tag; His (C); FLAG (C); host or cells: baculovirus expression system
T1 sequence (Q13547 whole entry, canonical isoform): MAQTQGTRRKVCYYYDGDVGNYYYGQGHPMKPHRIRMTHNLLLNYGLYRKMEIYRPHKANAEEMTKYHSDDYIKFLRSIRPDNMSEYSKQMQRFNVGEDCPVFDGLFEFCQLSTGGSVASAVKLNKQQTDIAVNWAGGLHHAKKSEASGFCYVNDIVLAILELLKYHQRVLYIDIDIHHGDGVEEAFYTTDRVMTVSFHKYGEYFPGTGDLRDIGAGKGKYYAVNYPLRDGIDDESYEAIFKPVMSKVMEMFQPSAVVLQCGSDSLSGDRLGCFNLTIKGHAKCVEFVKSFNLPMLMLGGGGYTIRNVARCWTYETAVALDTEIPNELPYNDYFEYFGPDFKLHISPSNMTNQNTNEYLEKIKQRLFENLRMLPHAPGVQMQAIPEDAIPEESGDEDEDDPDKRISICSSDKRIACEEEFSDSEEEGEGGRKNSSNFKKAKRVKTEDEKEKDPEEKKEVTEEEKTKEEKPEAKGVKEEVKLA
Outline: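 Baculovirus-expressed full-length human HDAC1 with His and FLAG tags, 0.3 ng/ul, incubated 1 h at 30° C with compound and 50 μM RHKK(Ac)AMC in Tris pH 8.0 buffer with BSA and 1% DMSO. Developer then releases AMC from deacetylated substrate; fluorescence read at 360/460 nm.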

Human HDAC4 = target: T2, Human HDAC4 (Homo sapiens, UniProt P56524); experiment: HDAC4 biochemical assay, class IIa-specific substrate; conditions: read-out: HDAC Isoform IC50 (nM) 4
T2 construct: amino acids 627-1085 with N-terminal GST tag; GST (N); host or cells: baculovirus expression system
T2 sequence (P56524 627-1084 limits assumed): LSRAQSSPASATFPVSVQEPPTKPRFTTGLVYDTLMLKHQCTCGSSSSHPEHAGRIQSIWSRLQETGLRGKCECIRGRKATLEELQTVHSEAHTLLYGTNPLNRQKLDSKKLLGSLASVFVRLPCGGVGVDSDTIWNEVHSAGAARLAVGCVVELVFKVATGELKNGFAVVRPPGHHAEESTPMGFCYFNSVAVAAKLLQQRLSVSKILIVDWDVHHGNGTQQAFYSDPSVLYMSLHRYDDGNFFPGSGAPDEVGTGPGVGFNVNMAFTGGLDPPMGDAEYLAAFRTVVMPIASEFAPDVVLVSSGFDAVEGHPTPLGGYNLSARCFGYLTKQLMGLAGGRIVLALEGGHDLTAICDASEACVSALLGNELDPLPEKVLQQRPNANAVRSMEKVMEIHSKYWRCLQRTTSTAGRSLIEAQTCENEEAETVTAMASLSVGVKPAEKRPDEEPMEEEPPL
Outline: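 GST-tagged human HDAC4 (aa 627-1085, baculovirus) at 0.004 ng/ul was incubated 30 min at room temperature with 50 μM class IIa-specific substrate BOC-Lys(trifluoroacetyl)-AMC in Tris-HCl pH 8.0 buffer with BSA, 1% DMSO. Developer then released AMC, read at 360/460 nm.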

Human HDAC5 = target: T3, Human HDAC5 (Homo sapiens, UniProt Q9UQL6); experiment: HDAC5 biochemical assay, class IIa-specific substrate; conditions: read-out: HDAC Isoform IC50 (nM) 5
T3 construct: full length with C-terminal His tag, MW=51.1 kDa; His (C); host or cells: baculovirus expression system
T3 sequence (Q9UQL6 656-1122 limits assumed): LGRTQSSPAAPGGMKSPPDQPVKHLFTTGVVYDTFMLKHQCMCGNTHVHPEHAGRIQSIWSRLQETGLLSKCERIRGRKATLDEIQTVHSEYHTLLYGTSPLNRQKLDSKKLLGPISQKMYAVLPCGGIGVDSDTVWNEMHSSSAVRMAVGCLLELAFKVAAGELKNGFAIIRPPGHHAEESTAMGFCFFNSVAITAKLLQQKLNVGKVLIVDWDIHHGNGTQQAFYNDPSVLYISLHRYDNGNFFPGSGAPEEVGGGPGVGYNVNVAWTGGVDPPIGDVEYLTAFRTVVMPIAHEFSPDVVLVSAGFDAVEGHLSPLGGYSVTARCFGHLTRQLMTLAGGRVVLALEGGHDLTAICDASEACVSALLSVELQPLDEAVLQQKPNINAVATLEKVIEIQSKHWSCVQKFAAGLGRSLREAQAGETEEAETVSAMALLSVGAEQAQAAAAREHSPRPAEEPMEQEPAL
Outline: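 Full-length C-terminal His-tagged HDAC5 from baculovirus (0.05 ng/ul) incubated 30 min at room temperature with 50 μM Boc-Lys(trifluoroacetyl)-AMC and compound, Tris pH 8.0 buffer with BSA, 1% DMSO. Developer then releases AMC; fluorescence 360/460 nm.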

Recombinant human HDAC6 = target: T4, Recombinant human HDAC6 (Homo sapiens, UniProt Q9UBN7); experiment: HDAC6 biochemical assay, AMC-labeled peptide substrate; conditions: HDAC6; read-out: HDAC Isoform IC50 (nM) 6
T4 construct: full length, MW=159 kDa; GST (N); host or cells: Sf9 insect cells (baculovirus)
T4 sequence (Q9UBN7 1-1215): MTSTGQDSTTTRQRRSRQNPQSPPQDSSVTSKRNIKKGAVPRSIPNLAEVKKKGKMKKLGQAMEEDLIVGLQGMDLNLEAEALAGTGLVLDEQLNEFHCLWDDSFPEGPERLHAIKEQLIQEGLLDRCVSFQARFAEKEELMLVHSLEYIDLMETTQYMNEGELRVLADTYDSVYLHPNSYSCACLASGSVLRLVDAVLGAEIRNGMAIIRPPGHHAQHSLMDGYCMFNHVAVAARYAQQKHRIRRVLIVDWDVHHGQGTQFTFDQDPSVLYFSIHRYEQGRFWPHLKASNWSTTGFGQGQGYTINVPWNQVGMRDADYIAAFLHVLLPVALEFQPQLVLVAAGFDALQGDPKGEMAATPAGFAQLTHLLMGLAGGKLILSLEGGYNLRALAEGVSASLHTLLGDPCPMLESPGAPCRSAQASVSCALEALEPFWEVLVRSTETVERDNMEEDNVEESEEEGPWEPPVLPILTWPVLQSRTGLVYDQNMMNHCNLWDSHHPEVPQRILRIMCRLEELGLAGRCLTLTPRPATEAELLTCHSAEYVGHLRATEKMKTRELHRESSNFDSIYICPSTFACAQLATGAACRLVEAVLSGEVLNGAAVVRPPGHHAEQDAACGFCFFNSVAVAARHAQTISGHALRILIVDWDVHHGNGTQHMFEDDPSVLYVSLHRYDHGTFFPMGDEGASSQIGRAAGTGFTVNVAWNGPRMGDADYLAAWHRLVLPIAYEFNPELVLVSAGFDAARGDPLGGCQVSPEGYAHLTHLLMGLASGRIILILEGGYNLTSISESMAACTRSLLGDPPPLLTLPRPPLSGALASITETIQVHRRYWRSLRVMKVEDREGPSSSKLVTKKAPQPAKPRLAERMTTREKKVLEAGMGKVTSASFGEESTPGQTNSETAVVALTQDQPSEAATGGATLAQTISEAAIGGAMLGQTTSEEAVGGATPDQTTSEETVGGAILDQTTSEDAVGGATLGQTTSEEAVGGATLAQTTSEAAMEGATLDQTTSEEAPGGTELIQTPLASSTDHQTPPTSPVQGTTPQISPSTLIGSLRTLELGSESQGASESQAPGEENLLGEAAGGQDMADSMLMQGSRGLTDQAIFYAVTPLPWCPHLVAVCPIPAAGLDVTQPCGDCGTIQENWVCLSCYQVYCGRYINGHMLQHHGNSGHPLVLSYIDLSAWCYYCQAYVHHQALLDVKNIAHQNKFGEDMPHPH
Outline: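 Two-step fluorogenic read-out: enzyme deacetylates 50 μM RHKK(Ac)AMC for 1 h at 30° C in pH 8.0 Tris buffer with BSA and 1% DMSO, then developer cleavage gives signal at Ex 360/Em 460. Enzyme: 0.3 ng/ul recombinant full-length human HDAC6, GST-tagged, Sf9-expressed.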

Human HDAC7 = target: T5, Human HDAC7 (Homo sapiens, UniProt Q8WUI4); experiment: HDAC7 biochemical assay, class IIa-specific substrate; conditions: read-out: HDAC Isoform IC50 (nM) 7
T5 construct: (a.a. 518-end) with N-terminal GST tag; GST (N); host or cells: baculovirus expression system
T5 sequence (Q8WUI4 518-952 limits assumed): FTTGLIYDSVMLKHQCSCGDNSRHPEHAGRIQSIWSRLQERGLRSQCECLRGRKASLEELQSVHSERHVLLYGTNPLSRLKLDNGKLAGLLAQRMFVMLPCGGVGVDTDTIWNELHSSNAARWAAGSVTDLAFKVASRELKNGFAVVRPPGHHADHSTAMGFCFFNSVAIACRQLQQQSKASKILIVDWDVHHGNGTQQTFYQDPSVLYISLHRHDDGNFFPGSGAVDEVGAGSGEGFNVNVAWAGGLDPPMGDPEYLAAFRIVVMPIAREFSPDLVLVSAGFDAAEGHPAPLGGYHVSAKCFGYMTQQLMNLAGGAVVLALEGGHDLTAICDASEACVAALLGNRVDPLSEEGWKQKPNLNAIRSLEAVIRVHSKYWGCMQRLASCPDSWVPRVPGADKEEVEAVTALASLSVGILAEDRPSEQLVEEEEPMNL
Outline: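 GST-tagged HDAC7 (a.a. 518-end, baculovirus-expressed) at 0.001 ng/ul with 50 μM Boc-Lys(trifluoroacetyl)-AMC substrate, 30 min at room temperature in pH 8.0 Tris buffer with BSA, 1% DMSO final. Developer then releases AMC; fluorescence read at 360/460 nm.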

Human HDAC9 = target: T6, Human HDAC9 (Homo sapiens, UniProt Q9UKV0); experiment: HDAC9 biochemical assay, class IIa-specific substrate; conditions: read-out: HDAC Isoform IC50 (nM) 9
T6 construct: amino acids 604-1066 with C-terminal His tag; His (C); host or cells: baculovirus expression system
T6 sequence (Q9UKV0 604-1066 isoform Q9UKV0-5): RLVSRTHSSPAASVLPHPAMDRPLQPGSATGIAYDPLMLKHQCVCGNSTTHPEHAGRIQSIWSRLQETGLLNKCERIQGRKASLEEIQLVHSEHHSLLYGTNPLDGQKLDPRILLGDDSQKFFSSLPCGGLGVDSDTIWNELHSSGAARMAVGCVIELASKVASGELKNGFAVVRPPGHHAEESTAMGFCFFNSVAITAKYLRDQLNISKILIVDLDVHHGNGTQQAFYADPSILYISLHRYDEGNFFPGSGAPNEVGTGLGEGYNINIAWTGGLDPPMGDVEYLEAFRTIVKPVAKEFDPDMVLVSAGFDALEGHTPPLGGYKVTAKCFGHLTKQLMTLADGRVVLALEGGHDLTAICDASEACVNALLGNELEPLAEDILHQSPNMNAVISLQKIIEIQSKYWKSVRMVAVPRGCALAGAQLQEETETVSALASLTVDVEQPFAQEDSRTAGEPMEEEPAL
Outline: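 HDAC9 residues 604-1066 (C-terminal His tag, baculovirus-expressed) at 0.06 ng/ul with 50 μM class IIa substrate Boc-Lys(trifluoroacetyl)-AMC in Tris-HCl pH 8.0 buffer with BSA and 1% DMSO. 30 min at room temperature, then developer added; fluorescence read at 360/460 nm Ex/Em.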

Structure (SMILES) | IC50 (Human HDAC1) [nM] | IC50 (Human HDAC4) [nM] | IC50 (Human HDAC5) [nM] | IC50 (Recombinant human HDAC6) [nM] | IC50 (Human HDAC7) [nM] | IC50 (Human HDAC9) [nM]
FC(F)(F)c1nc(-c2ccc(CN(c3cnccn3)c3cnsn3)s2)no1 [Example S, N-(1,2,5-Thiadiazol-3-yl)-N-({5-[5-(trifluoromethyl)-1,2,4-oxadiazol-3-yl]thiophen-2-yl}methyl)pyrazin-2-amine] | > 10000 | ≤ 1000 | ≤ 10000 | ≤ 10000 | ≤ 10000 | ≤ 10000
FC(F)(F)c1nc(-c2ccc(CN(c3cnc(C4CC4)nc3)c3cnccn3)s2)no1 [Example CU, 2-Cyclopropyl-N-(pyrazin-2-yl)-N-({5-[5-(trifluoromethyl)-1,2,4-oxadiazol-3-yl]thiophen-2-yl}methyl)pyrimidin-5-amine] | > 10000 | ≤ 500 | ≤ 1000 | ≤ 10000 | ≤ 1000 | ≤ 10000
COc1ccc(N(Cc2ccc(-c3noc(C(F)(F)F)n3)s2)c2cnccn2)nn1 [Example DG, 6-Methoxy-N-(pyrazin-2-yl)-N-({5-[5-(trifluoromethyl)-1,2,4-oxadiazol-3-yl]thiophen-2-yl}methyl)pyridazin-3-amine] | > 10000 | ≤ 1000 | ≤ 1000 | ≤ 1000 | ≤ 10000 | ≤ 10000
FC(F)(F)c1cnnc(N(Cc2ccc(-c3noc(C(F)(F)F)n3)s2)c2ccncc2)c1 [Example EJ, N-(Pyridin-4-yl)-5-(trifluoromethyl)-N-({5-[5-(trifluoromethyl)-1,2,4-oxadiazol-3-yl]thiophen-2-yl}methyl)pyridazin-3-amine] | > 10000 | ≤ 10000 | ≤ 10000 | ≤ 10000 | ≤ 10000 | ≤ 10000
Cc1cnc(N(Cc2ccc(-c3noc(C(F)(F)F)n3)s2)c2cnccn2)c(C)n1 [Example BV, 3,5-Dimethyl-N-(pyrazin-2-yl)-N-({5-[5-(trifluoromethyl)-1,2,4-oxadiazol-3-yl]thiophen-2-yl}methyl)pyrazin-2-amine] | > 10000 | ≤ 500 | ≤ 500 | ≤ 10000 | ≤ 1000 | ≤ 1000
COc1cc(N(Cc2ccc(-c3noc(C(F)(F)F)n3)s2)c2cnccn2)ncn1 [Example CH, 6-Methoxy-N-(pyrazin-2-yl)-N-({5-[5-(trifluoromethyl)-1,2,4-oxadiazol-3-yl]thiophen-2-yl}methyl)pyrimidin-4-amine] | > 10000 | ≤ 10000 | ≤ 10000 | ≤ 10000 | ≤ 10000 | ≤ 10000
FC(F)(F)c1nc(-c2ccc(CN(c3ccncc3)c3cnccn3)s2)no1 [Example AR, N-(Pyridin-4-yl)-N-({5-[5-(trifluoromethyl)-1,2,4-oxadiazol-3-yl]thiophen-2-yl}methyl)pyrazin-2-amine] | > 10000 | ≤ 500 | ≤ 500 | ≤ 500 | ≤ 500 | ≤ 1000
Cc1cncc(N(Cc2ccc(-c3noc(C(F)(F)F)n3)s2)c2cncc(C)n2)n1 [Example BX, 6-Methyl-N-(6-methylpyrazin-2-yl)-N-({5-[5-(trifluoromethyl)-1,2,4-oxadiazol-3-yl]thiophen-2-yl}methyl)pyrazin-2-amine] | > 10000 | > 10000 | ≤ 10000 | ≤ 10000 | ≤ 10000 | ≤ 10000
FC(F)(F)c1nc(-c2ccc(CN(c3cnccn3)c3ccnc4ccnn34)s2)no1 [Example CF, N-{Pyrazolo[1,5-a]pyrimidin-7-yl}-N-({5-[5-(trifluoromethyl)-1,2,4-oxadiazol-3-yl]thiophen-2-yl}methyl)pyrazin-2-amine] | > 10000 | ≤ 1000 | ≤ 10000 | ≤ 10000 | ≤ 10000 | ≤ 10000
FC(F)(F)c1nc(-c2ccc(CN(c3ccc(N4CCCC4)nc3)c3cnccn3)s2)no1 [Example AP, N-[6-(Pyrrolidin-1-yl)pyridin-3-yl]-N-({5-[5-(trifluoromethyl)-1,2,4-oxadiazol-3-yl]thiophen-2-yl}methyl)pyrazin-2-amine] | > 10000 | ≤ 10000 | ≤ 10000 | > 10000 | ≤ 10000 | ≤ 10000
FC(F)(F)c1ccc(N(Cc2ccc(-c3noc(C(F)(F)F)n3)s2)c2cnccn2)nc1 [Example AB, N-({5-[5-(Trifluoromethyl)-1,2,4-oxadiazol-3-yl]thiophen-2-yl}methyl)-N-[5-(trifluoromethyl)pyridin-2-yl]pyrazin-2-amine] | > 10000 | ≤ 10000 | ≤ 10000 | ≤ 10000 | > 10000 | ≤ 10000
FC(F)(F)c1nc(-c2ccc(CN(c3cnccn3)c3nccc4nccnc34)s2)no1 [Example AL, N-{Pyrido[3,4-b]pyrazin-5-yl}-N-({5-[5-(trifluoromethyl)-1,2,4-oxadiazol-3-yl]thiophen-2-yl}methyl)pyrazin-2-amine] | > 10000 | ≤ 10000 | ≤ 10000 | ≤ 10000 | ≤ 10000 | ≤ 10000
